These results are taken from patent US5731322A, “Octahydro-1H-pyrrolo[3,2-g]and [2,3-g]isoquinoline derivatives” (SmithKline Beecham S.p.A., priority 1993, dated 1998).

SMILES strings stand for the structures.

For test [1], the target named is T1, mu opioid receptor (Mus musculus, UniProt P42866).
T1 construct: Mouse brain membranes were prepared as described by Kosterlitz; from tissue; host or cells: mouse brain membranes
Nature of the test: Opioid radioligand binding assay, mu ([3H]-DAMGO), mouse brain membranes. The conditions noted are these: ratio of Ki, mu ([3H]-DAMGO) vs delta. The method, then: (§1) Mouse brain membranes were prepared as described by Kosterlitz (Br. J. Pharmacol., 1981, 73, 939.). […] The binding of the mu ligand [^3 H]-DAMGO (Eur. J. Pharmacol., 1989, 166, 213) and of the kappa ligand [^3 H]-U69593 (Excerpta Medica, 1990, 211) were carried out at 0.5 nM. The non-specific binding was determined in presence of naloxone (10 μM) for all tritiated ligands. […] The IC50 obtained were used to calculate the inhibitory constants (Ki) accordingly to the Cheng and Prusoff relation (Biochem. Pharmacol., 1973, 22, 3099).

Test [2] concerns the target T2, kappa opioid receptor (Mus musculus, UniProt P33534).
T2 construct: Mouse brain membranes were prepared as described by Kosterlitz; from tissue; host or cells: mouse brain membranes
Briefly: Opioid radioligand binding assay, kappa ([3H]-U69593), mouse brain membranes. The conditions noted are these: ratio of Ki, kappa ([3H]-U69593) vs delta. The method, then: as §1

For test [3], the target named is T3, delta receptor (Mus musculus, UniProt P32300). Briefly: Mouse vas deferens (MVD) bioassay, delta agonist/antagonist studies, electrically stimulated tissue. It counts as cell-based, mouse (CD-1). Details: Vasa deferentia were obtained from CD-1 mice; from tissue; host or cells: vas deferens of CD-1 mice. How it is done: Vasa deferentia were obtained from CD-1 mice and were suspended in a Mg^2+ -free Krebs buffer at 37° C. For the delta agonist/antagonist studies, the tissues were electrically stimulated with pulse trains having the following parameters: train duration 50 ms, stimulus duration 2 ms, frequency of stimuli 50 Hz, maximal voltage 60-70 V, train frequency 0.1 Hz. Concentration response curves for each compounds were constructed cumulatively. Linear regression analysis and IC50 concentrations were evaluated according to Tallarida and Murray (Manual of Pharmacological Calculations, Springer Verlag N.Y., 1981).

The target of test [4] is T3, delta receptor. Briefly: Opioid radioligand binding assay, delta ([3H]-DADLE in presence of unlabelled DAMGO), mouse brain membranes. Further details: Mouse brain membranes were prepared as described by Kosterlitz; from tissue; host or cells: mouse brain membranes. The settings on record: [3H]-DADLE 1.3 nM, 40 nM DAMGO. The method, then: as §1

T3 sequence (P32300 whole entry): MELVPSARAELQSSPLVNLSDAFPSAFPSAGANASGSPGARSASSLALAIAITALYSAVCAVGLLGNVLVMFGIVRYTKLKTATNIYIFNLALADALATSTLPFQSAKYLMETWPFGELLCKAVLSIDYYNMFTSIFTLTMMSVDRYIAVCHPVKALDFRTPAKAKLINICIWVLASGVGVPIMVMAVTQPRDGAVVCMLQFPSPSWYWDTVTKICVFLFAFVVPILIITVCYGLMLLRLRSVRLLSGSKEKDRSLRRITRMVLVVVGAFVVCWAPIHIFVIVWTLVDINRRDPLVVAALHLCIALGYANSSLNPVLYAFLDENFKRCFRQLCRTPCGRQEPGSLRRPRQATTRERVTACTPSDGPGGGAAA
T1 sequence (P42866 whole entry): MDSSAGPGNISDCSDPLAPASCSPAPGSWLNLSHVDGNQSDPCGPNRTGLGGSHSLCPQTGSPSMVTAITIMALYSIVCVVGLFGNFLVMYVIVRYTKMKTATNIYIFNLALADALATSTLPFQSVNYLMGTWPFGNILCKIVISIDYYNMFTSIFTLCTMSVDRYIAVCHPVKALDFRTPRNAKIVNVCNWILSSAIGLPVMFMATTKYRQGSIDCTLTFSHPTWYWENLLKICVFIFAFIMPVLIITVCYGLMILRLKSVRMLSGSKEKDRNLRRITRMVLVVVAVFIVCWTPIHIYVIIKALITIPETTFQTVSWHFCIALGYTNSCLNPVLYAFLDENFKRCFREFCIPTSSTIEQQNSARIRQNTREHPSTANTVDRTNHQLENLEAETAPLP
T2 sequence (P33534 whole entry): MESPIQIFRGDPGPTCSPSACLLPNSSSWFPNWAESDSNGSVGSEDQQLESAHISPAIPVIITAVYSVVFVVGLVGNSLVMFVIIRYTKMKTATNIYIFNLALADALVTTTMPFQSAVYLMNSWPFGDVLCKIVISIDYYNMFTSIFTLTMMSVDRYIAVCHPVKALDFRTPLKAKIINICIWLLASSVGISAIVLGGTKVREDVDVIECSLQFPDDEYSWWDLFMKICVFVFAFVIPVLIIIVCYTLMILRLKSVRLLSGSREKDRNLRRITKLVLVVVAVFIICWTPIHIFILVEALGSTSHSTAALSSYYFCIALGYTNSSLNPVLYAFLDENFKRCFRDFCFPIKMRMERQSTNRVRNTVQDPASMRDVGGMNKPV

In the case of `CCN(CC)C(=O)c1[nH]c2c(c1C)C[C@@H]1CN(C)CC[C@@]1(c1cccc(O)c1)C2.Cl` (racemic) [Example 10, (±)-trans-2-Diethylaminocarbonyl-3,6-dimethyl-8a-(3-hydroxyphenyl)-4,4a,5,6,7,8,8a,9-octahydro-1H-pyrrolo[2,3-g]isoquinoline hydrochloride], the “Ki mu/Ki delta” value in test [1] is reported as 45. In test [2], the “Ki kappa/Ki delta” value is 403. The same compound gave a Kb in test [3] of 7 nM. Also, the inhibition constant Ki in test [4] is 2.15 nM.
`CCN1CC[C@@]2(c3cccc(O)c3)Cc3[nH]c(C(=O)N(CC)CC)c(C)c3C[C@@H]2C1.Cl` (single isomer, unassigned) [Example 34, (-)-trans-2-Diethylaminocarbonyl-6-ethyl-8a-(3-hydroxyphenyl)-3-methyl-4,4a,5,6,7,8,8a,9-octahydro-1H-pyrrolo[2,3-g]isoquinoline hydrochloride]: the “Ki mu/Ki delta” value in test [1] was determined as 110. Besides, the “Ki kappa/Ki delta” value in test [2] is 1105. Further, the IC50 in test [3] (mouse vas deferens, delta agonist study, read-out: IC50 in the MVD preparation (delta agonists)) was determined as 26 nM. Moreover, the Ki in test [4] is 0.73 nM.

As a reminder, the Kb is the equilibrium dissociation constant of an antagonist, usually derived from a functional assay. Read a low Kb as a more potent antagonist. Broadly, the Ki is a dissociation constant, usually derived from enzyme kinetics or from competition with a known ligand.
